Consider 12 molecules from US20240158391A1, “DERIVATIVES OF 4-(IMIDAZO[1,2-A]PYRIDIN-3-YL)-N-(PYRIDIN-3-YL) PYRIMIDIN-2- AMINE FOR TREATING PROLIFERATIVE DISEASES AND CONDITIONS” (AUCENTRA THERAPEUTICS PTY LTD, priority 2019, published 2024).

One assay has as its target T1, FLT3-ITD (Homo sapiens, UniProt P36888).
T1 sequence (P36888 1-993): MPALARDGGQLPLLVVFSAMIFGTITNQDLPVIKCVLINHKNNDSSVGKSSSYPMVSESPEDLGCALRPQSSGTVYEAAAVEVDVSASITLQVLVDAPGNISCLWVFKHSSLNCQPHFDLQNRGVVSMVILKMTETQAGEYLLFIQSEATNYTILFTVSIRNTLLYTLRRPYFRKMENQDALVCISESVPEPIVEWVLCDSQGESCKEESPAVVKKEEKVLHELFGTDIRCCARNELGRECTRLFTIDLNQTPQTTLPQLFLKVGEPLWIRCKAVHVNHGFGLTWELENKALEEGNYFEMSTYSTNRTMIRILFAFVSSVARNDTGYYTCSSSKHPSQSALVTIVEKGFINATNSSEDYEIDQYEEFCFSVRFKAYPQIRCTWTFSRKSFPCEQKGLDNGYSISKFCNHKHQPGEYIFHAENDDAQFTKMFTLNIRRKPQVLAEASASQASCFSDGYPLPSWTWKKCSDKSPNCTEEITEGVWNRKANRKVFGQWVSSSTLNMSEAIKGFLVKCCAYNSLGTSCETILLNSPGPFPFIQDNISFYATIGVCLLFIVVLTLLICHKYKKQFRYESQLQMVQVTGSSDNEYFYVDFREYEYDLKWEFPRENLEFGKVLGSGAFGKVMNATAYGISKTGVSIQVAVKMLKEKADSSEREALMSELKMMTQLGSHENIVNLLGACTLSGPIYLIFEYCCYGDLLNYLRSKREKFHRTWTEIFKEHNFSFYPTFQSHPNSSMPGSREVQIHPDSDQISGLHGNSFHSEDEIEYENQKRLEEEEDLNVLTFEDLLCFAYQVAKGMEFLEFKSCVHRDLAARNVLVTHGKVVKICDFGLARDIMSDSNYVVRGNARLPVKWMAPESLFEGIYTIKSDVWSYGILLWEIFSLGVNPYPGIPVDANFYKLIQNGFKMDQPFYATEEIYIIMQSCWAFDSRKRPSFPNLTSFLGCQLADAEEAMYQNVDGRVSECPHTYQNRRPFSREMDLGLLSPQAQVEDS
The assay can be described thus: ADP Glo kinase assay, FLT3-ITD. The format is biochemical. Particulars: for Ki: Km ATP 100 μM, read-out: Enzymatic inhibition, Ki, FLT3-ITD. The method, then:
(§1) Test compounds are used in 1:3 serial dilutions for 10 concentrations (from 10-0.0005 μM) in 0.5% DMSO. […] The kinase reactions are run for optimised time period at room temperature and then the reaction is stopped by adding 5 μL of ADP Glo reagent.
In general terms: ADP-Glo first removes unused ATP, then detects ADP through luciferase.

The target in another assay is CDK1/CyclinB (Homo sapiens, UniProt P06493). Nature of the assay: ADP Glo kinase assay, CDK1/CyclinB. The format is biochemical. Particulars: for Ki: Km ATP, read-out: Enzymatic inhibition, Ki, CDK1 B; for remaining activity at 1 µM: compound at 1 μM, read-out: Residual enzymatic activity (%) at 1 μM, CDK1 B. The method, then: as §1
CDK1/CyclinB, sequence (P06493 whole entry, species assumed): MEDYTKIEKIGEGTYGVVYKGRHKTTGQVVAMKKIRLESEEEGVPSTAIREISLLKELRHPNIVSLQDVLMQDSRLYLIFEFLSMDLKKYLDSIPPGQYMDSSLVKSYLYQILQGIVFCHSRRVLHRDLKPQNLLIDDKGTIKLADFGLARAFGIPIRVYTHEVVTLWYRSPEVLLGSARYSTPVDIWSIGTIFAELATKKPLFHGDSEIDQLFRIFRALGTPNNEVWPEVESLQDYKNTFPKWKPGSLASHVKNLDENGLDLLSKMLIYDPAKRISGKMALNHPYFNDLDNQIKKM
CDK1/CyclinB, sequence (P14635 whole entry partner, species assumed): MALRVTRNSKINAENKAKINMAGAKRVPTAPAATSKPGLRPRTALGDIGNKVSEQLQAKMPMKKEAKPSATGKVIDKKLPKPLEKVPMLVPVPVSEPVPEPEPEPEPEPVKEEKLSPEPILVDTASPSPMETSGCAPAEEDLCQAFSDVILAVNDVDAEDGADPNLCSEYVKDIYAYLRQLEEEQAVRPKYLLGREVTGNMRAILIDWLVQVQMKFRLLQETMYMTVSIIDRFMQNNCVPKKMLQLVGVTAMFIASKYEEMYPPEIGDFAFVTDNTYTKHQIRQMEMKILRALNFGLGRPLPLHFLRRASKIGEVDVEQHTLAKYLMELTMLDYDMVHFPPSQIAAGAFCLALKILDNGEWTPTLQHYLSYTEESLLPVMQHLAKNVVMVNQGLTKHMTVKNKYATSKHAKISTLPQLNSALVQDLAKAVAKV
Another assay addresses CDK4/CyclinD1 (Homo sapiens, UniProt P11802). The assay can be described thus: ADP Glo kinase assay, CDK4/CyclinD1. The format is biochemical. Particulars: for Ki: Km ATP, read-out: Enzymatic inhibition, Ki, CDK4 D1; for remaining activity at 1 µM: compound at 1 μM, read-out: Residual enzymatic activity (%) at 1 μM, CDK4 D1. The method, then:
as §1

The target of another assay is CDK2/CyclinA2 (Homo sapiens, UniProt P24941). The assay can be described thus: ADP Glo kinase assay, CDK2/CyclinA2. The format is biochemical. Particulars: for Ki: Km ATP, read-out: Enzymatic inhibition, Ki, CDK2 A; for remaining activity at 1 µM: compound at 1 μM, read-out: Residual enzymatic activity (%) at 1 μM, CDK2 A. How it is done:
as §1

The target in the next assay is CDK9/CyclinT1 (Homo sapiens, UniProt P50750). The assay can be described thus: ADP Glo kinase assay, CDK9/CyclinT1. The format is biochemical. The conditions noted are these: for Ki: CDK9/CyclinT1, Km ATP, read-out: Enzymatic inhibition, Ki, CDK9 T1. How it is done: as §1
CDK9/CyclinT1, sequence (P50750 whole entry, species assumed): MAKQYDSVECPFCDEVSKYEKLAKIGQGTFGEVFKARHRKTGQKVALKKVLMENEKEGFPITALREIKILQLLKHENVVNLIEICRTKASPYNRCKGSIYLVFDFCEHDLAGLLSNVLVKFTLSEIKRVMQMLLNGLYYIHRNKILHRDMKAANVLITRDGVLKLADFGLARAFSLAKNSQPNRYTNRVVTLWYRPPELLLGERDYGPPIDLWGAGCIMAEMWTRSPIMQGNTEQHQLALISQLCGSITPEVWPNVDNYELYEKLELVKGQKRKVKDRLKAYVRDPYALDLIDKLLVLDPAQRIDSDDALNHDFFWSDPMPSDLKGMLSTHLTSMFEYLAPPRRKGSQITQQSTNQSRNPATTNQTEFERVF
CDK9/CyclinT1, sequence (O60563 whole entry partner, species assumed): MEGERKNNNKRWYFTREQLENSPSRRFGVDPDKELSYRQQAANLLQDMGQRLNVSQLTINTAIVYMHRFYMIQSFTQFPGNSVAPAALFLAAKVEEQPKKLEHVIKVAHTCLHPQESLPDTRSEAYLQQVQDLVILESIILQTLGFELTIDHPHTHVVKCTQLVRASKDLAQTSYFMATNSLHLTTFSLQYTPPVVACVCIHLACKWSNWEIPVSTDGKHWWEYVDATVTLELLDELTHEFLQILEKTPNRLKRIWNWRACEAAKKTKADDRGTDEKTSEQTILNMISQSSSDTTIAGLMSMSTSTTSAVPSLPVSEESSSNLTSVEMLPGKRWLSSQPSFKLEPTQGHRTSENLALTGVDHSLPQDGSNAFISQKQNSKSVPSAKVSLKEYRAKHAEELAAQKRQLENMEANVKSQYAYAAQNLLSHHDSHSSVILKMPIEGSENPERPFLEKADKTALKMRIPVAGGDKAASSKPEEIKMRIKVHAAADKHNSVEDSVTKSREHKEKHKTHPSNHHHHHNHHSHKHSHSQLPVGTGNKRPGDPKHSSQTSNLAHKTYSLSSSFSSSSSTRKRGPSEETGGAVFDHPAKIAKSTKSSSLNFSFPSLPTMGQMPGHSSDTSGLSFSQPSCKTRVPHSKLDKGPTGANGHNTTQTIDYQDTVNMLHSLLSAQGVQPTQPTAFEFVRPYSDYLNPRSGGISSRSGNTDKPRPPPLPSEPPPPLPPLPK
In a further assay the target is CDK6/CyclinD3 (Homo sapiens, UniProt Q00534). The assay can be described thus: ADP Glo kinase assay, CDK6/CyclinD3. The format is biochemical. Particulars: for Ki: Km ATP, read-out: Enzymatic inhibition, Ki, CDK6 D3; for remaining activity at 1 µM: compound at 1 μM, read-out: Residual enzymatic activity (%) at 1 μM, CDK6 D3. The method, then: as §1
CDK6/CyclinD3, sequence (Q00534 whole entry, species assumed): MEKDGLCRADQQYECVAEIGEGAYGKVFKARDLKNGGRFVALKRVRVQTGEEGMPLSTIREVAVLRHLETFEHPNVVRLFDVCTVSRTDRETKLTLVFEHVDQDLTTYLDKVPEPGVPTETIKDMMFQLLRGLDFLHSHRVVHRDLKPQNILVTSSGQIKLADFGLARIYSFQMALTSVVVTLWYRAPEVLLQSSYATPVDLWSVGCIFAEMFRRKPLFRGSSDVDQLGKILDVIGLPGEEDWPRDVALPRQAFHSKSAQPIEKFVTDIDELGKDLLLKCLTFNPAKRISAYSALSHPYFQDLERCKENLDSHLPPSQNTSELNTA
CDK6/CyclinD3, sequence (P30281 whole entry partner, species assumed): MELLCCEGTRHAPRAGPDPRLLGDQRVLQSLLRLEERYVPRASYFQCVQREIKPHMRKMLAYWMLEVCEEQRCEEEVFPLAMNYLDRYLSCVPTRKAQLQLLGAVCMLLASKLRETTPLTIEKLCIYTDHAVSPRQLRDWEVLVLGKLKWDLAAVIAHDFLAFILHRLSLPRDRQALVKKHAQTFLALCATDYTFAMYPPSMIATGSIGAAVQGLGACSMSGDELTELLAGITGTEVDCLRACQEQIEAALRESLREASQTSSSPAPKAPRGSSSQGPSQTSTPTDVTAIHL
For another assay, the system named is MV-4-11. The assay can be described thus: Proliferation assay (resazurin, leukemia cell lines), MV-4-11. Particulars: Homo sapiens, MV4-11, read-out: 72 h Growth inhibition GI50, MV-4-11 cells. The format is cell-based. An excerpt: The following compounds were used as comparators.
On the technique in general: Resazurin is reduced to fluorescent resorufin, in cell work by metabolically active cells.

A further assay deals with CDK7/CyclinH/Mat1 (Homo sapiens, UniProt P50613). The assay can be described thus: ADP Glo kinase assay, CDK7/CyclinH/Mat1. The format is biochemical. The conditions noted are these: for remaining activity at 1 µM: compound at 1 μM, read-out: Residual enzymatic activity (%) at 1 μM, CDK7 H. How it is done:
as §1

In general, Ki refers to a dissociation constant, usually derived from enzyme kinetics or from competition with a known ligand. The term GI50 denotes the concentration that inhibits growth by half.

CDK4/CyclinD1, sequence (P11802 whole entry, species assumed): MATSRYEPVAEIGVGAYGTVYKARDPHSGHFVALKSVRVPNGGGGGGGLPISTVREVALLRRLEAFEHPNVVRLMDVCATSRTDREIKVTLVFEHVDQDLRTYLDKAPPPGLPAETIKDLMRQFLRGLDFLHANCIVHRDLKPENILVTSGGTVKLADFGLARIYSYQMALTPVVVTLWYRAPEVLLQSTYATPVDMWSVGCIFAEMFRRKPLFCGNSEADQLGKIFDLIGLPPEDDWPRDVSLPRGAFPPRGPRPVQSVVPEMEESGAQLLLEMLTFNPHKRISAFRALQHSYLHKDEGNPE
CDK4/CyclinD1, sequence (P24385 whole entry partner, species assumed): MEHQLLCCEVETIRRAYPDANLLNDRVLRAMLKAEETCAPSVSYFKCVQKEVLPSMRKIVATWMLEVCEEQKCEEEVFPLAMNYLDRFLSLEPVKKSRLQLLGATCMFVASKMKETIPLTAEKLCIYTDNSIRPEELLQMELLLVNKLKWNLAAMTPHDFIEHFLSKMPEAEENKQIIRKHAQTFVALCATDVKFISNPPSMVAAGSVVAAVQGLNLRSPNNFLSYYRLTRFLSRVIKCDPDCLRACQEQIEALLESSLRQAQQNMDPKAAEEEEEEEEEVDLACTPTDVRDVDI
CDK7/CyclinH/Mat1, sequence (P50613 whole entry, species assumed): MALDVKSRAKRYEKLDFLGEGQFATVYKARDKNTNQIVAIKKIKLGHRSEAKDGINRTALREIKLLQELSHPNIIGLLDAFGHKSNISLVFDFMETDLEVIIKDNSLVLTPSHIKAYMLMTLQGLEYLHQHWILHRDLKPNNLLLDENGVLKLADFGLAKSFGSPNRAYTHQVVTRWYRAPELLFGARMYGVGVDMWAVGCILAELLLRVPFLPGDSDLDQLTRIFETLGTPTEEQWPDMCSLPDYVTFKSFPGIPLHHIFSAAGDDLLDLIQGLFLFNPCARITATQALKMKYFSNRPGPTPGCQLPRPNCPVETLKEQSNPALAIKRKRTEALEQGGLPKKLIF
CDK7/CyclinH/Mat1, sequence (P51946 whole entry partner, species assumed): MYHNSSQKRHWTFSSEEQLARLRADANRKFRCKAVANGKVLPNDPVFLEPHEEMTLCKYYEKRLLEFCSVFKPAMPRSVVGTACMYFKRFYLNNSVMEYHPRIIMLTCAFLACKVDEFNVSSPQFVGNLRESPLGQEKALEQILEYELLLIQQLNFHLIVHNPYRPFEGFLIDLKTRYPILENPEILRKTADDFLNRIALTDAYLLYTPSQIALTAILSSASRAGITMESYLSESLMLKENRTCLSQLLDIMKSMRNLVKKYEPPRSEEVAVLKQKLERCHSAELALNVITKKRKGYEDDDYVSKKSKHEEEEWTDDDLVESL
CDK7/CyclinH/Mat1, sequence (P51948 whole entry partner, species assumed): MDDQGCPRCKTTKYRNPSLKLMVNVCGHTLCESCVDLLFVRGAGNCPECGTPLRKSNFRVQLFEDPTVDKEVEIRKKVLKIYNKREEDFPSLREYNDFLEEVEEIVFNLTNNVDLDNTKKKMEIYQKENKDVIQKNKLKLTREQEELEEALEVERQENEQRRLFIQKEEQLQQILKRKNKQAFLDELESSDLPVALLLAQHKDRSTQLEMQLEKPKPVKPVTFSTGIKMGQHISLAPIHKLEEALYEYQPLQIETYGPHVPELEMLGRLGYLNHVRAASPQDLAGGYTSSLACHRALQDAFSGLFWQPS

With `CS(=O)(=O)N1CCN(c2ccc(Nc3nccc(-c4cnc5ccc(Br)cn45)n3)cn2)CC1` [Compound 16, 4-(6-Bromoimidazo[1,2-a]pyridin-3-yl)-N-(6-(4-(methylsulfonyl)piperazin-1-yl)pyridin-3-yl)pyrimidin-2-amine], the Ki on FLT3-ITD stood at 7 nM; at CDK1/CyclinB, 153 nM; on CDK4/CyclinD1, 718 nM; at CDK2/CyclinA2, 124 nM; on CDK9/CyclinT1 it was 77 nM; on CDK6/CyclinD3, 2090 nM. Moreover, the GI50 in the assay on MV-4-11 turned out to be 10 nM.
In the case of `CC(C)N1CCN(c2ccc(Nc3nccc(-c4cnc5ccc(Br)cn45)n3)cn2)CC1` [Compound 38, 4-(6-Bromoimidazo[1,2-a]pyridin-3-yl)-N-(6-(4-isopropylpiperazin-1-yl)pyridin-3-yl)pyrimidin-2-amine], the inhibition constant (Ki) at FLT3-ITD amounted to 10 nM; at CDK1/CyclinB, 145 nM; on CDK4/CyclinD1, 49 nM; at CDK2/CyclinA2 it was 44 nM; at CDK9/CyclinT1 it was 10 nM; on CDK6/CyclinD3, 295 nM. Also, the 50% growth inhibitory concentration (GI50) with MV-4-11 was determined as 39 nM.
With `Cc1ccc2ncc(-c3ccnc(Nc4ccc(N5CCN(C)CC5)nc4)n3)n2c1` [Compound 35, 4-(6-Methylimidazo[1,2-a]pyridin-3-yl)-N-(6-(4-methylpiperazin-1-yl)pyridin-3-yl)pyrimidin-2-amine], the inhibitory constant (Ki) on FLT3-ITD was determined as 16 nM; on CDK1/CyclinB it was 48 nM; at CDK4/CyclinD1, 34 nM; on CDK2/CyclinA2, 15 nM; on CDK9/CyclinT1, 4 nM; at CDK7/CyclinH/Mat1 (Km ATP, read-out: Enzymatic inhibition, Ki, CDK7 H) it was 84 nM. In addition, the concentration for 50% growth inhibition (GI50) in the assay on MV-4-11 amounted to 4 nM.
Consider `CN1CCN(c2ccc(Nc3nccc(-c4cnc5ccc(-c6cnn(C)c6)cn45)n3)cn2)CC1` [Compound 9, 4-(6-(1-Methyl-1H-pyrazol-4-yl)imidazo[1,2-a]pyridin-3-yl)-N-(6-(4-methylpiperazin-1-yl)pyridin-3-yl)pyrimidin-2-amine], for which the inhibition constant Ki is 15 nM at FLT3-ITD; 645 nM at CDK1/CyclinB; over 500 nM at CDK4/CyclinD1; 1030 nM at CDK2/CyclinA2; 2 nM at CDK9/CyclinT1. Moreover, the “inhibition of CDK9 (in words)” value against CDK9/CyclinT1 (compared with comparator compounds A, B and C (N-(pyridin-2-yl)pyrimidin-2-amine moiety)) was “dramatically and surprisingly increased the potency of inhibition of CDK9”. For the same molecule, the GI50 in the assay on MV-4-11 was determined as 10 nM.
Consider `CN1CCN(c2ccc(Nc3nccc(-c4cnc5ccc(-c6cn[nH]c6)cn45)n3)cn2)CC1` [Compound 24, 4-(6-(1H-Pyrazol-4-yl)imidazo[1,2-a]pyridin-3-yl)-N-(6-(4-methylpiperazin-1-yl)pyridin-3-yl)pyrimidin-2-amine], for which the Ki was determined as 8 nM at FLT3-ITD, 29 nM at CDK1/CyclinB, 42 nM at CDK2/CyclinA2 and 4 nM on CDK9/CyclinT1. Further, at CDK4/CyclinD1, the remaining activity at 1 µM was determined as 21%. Also, in the assay with MV-4-11, the concentration for 50% growth inhibition (GI50) is 33 nM.
For the molecule `O=C1NCCC12CCN(c1ccc(Nc3nccc(-c4cnc5ccc(Br)cn45)n3)cn1)CC2` [Compound 71, 8-(5-((4-(6-Bromoimidazo[1,2-a]pyridin-3-yl)pyrimidin-2-yl)amino)pyridin-2-yl)-2,8-diazaspiro[4.5]decan-1-one], the Ki at FLT3-ITD is 24 nM; on CDK9/CyclinT1, over 500 nM. Also, the remaining activity at 1 µM is 95% at CDK1/CyclinB, 74% on CDK2/CyclinA2, 97% on CDK6/CyclinD3 and 91% at CDK7/CyclinH/Mat1. The 50% growth inhibitory concentration (GI50) in the assay with MV-4-11 was determined as 12 nM.
In the case of `CN(C)c1ccc(Nc2nccc(-c3cnc4ccc(-c5ccccc5)cn34)n2)cn1` [Compound 66, N^2,N^2-Dimethyl-N^5-(4-(6-phenylimidazo[1,2-a]pyridin-3-yl)pyrimidin-2-yl)pyridine-2,5-diamine], the Ki came out at 220 nM at FLT3-ITD and 468 nM on CDK9/CyclinT1. Also, the remaining activity at 1 µM was determined as 76% at CDK1/CyclinB, 73% on CDK2/CyclinA2, 79% on CDK6/CyclinD3 and 64% at CDK7/CyclinH/Mat1. Also, the 50% growth inhibitory concentration (GI50) with MV-4-11 worked out at 17 nM.
As for `O=C(c1ccco1)N1CCN(c2ccc(Nc3nccc(-c4cnc5ccc(Br)cn45)n3)cn2)CC1` [Compound 62, (4-(5-((4-(6-Bromoimidazo[1,2-a]pyridin-3-yl)pyrimidin-2-yl)amino)pyridin-2-yl)piperazin-1-yl)(furan-2-yl)methanone], the results for the Ki at FLT3-ITD and at CDK9/CyclinT1 were 188 nM and 541 nM, respectively. Moreover, the remaining activity at 1 µM at CDK1/CyclinB came out at 39%; on CDK2/CyclinA2, 57%; on CDK6/CyclinD3, 76%; on CDK7/CyclinH/Mat1, 60%. In addition, in the assay with MV-4-11, the GI50 is 52 nM.
In the case of `Brc1ccc2ncc(-c3ccnc(Nc4ccc(NC5CCOCC5)nc4)n3)n2c1` [Compound 57, N^5-(4-(6-Bromoimidazo[1,2-a]pyridin-3-yl)pyrimidin-2-yl)-N^2-(tetrahydro-2H-pyran-4-yl)pyridine-2,5-diamine], the inhibitory constant (Ki) is 40 nM at FLT3-ITD, 56 nM on CDK2/CyclinA2 and 103 nM at CDK9/CyclinT1. Besides, the remaining activity at 1 µM on CDK1/CyclinB was determined as 57%; at CDK6/CyclinD3 it was 93%; on CDK7/CyclinH/Mat1, 88%. Besides, the GI50 in the assay with MV-4-11 turned out to be 30 nM.
Turning to `CN1CCN(c2ccc(Nc3nccc(-c4cnc5ccc(-c6cnc(N)nc6)cn45)n3)cn2)CC1` [Compound 23, 4-(6-(2-Aminopyrimidin-5-yl)imidazo[1,2-a]pyridin-3-yl)-N-(6-(4-methylpiperazin-1-yl)pyridin-3-yl)pyrimidin-2-amine], the values for the Ki at FLT3-ITD and on CDK9/CyclinT1 were 23 nM and 20 nM, respectively. For the same molecule, the remaining activity at 1 µM on CDK1/CyclinB is 67%; at CDK4/CyclinD1 it was 72%; on CDK2/CyclinA2, 26%; on CDK6/CyclinD3, 46%. Further, the GI50 in the assay with MV-4-11 stood at 181 nM.
For `CC(C)N1CCN(c2ccc(Nc3nccc(-c4cnc5ccc(-c6ccc(F)nc6)cn45)n3)cn2)CC1` [Compound 55, 4-(6-(6-Fluoropyridin-3-yl)imidazo[1,2-a]pyridin-3-yl)-N-(6-(4-isopropylpiperazin-1-yl)-pyridin-3-yl)pyrimidin-2-amine], the Ki at FLT3-ITD came out at 28 nM; at CDK9/CyclinT1, 36 nM. Moreover, the remaining activity at 1 µM at CDK1/CyclinB was 50%; on CDK2/CyclinA2 it was 62%; on CDK6/CyclinD3, 55%; on CDK7/CyclinH/Mat1 it was 38%. In the assay with MV-4-11, the GI50 came out at 116 nM.
For `CN(C)c1ccc(Nc2nccc(-c3cnc4ccc(C5=CCNCC5)cn34)n2)cn1` [Compound 69, N^2,N^2-Dimethyl-N^5-(4-(6-(1,2,3,6-tetrahydropyridin-4-yl)imidazo[1,2-a]pyridin-3-yl)pyrimidin-2-yl)pyridine-2,5-diamine], the “Residual enzymatic activity (%) at 1 μM, FLT3-ITD” value on FLT3-ITD (compound at 1 μM) was 30%. Also, the results for the Ki on CDK1/CyclinB, at CDK2/CyclinA2 and on CDK9/CyclinT1 were 116 nM, 82 nM and 16 nM, respectively. In addition, the values for the remaining activity at 1 µM on CDK6/CyclinD3 and on CDK7/CyclinH/Mat1 were 81% and 65%, respectively. Moreover, the GI50 in the assay on MV-4-11 was 152 nM.
